ChEMBL document CHEMBL5500324, “The potential of marine-derived piperazine alkaloids: Sources, structures and bioactivities” (Eur J Med Chem, 2024)
≈ marks a conversion by molar mass, not a printed value.

What was measured:
HeLa = test: Cytotoxicity against human HeLa cells assessed as reduction in cell viability measured for 24 hrs by MTT assay; assay type: functional, cell-based
K562 = test: Antiproliferative activity against human K562 cells assessed as reduction in cell growth incubated for 72 hrs by MTT assay; assay type: functional, cell-based; conditions: K562, 72 h
HL-60 [1] = test: Antiproliferative activity against human HL-60 cells assessed as reduction in cell growth incubated for 72 hrs by MTT assay; assay type: functional, cell-based; conditions: HL-60, 72 h
BGC-823 = test: Cytotoxicity against human BGC-823 cells assessed as reduction in cell growth measured after 72 hrs by MTT assay; assay type: functional, cell-based; conditions: BGC-823, 72 h
MCF7 [2] = test: Cytotoxicity against human MCF7 cells assessed as reduction in cell growth measured after 72 hrs by MTT assay; assay type: functional, cell-based; conditions: MCF7, 72 h
HEK293 = test: Cytotoxicity against HEK293 cells assessed as cell growth inhibition; assay type: functional, cell-based; conditions: Homo sapiens
HCT-116 [3] = test: Cytotoxicity against human HCT-116 cells assessed as reduction in cell viability incubated for 24 hrs by MTT assay; assay type: functional, cell-based; conditions: HCT-116, 24 h
RKO = test: Cytotoxicity against human RKO cells assessed as inhibition of cell growth measured after 48 hrs by MTT assay; assay type: functional, cell-based
SF-268 [4] = test: Cytotoxicity against human SF-268 cells assessed as reduction in cell growth incubated for 48 hrs by SRB assay; assay type: functional, cell-based; conditions: SF-268, 48 h
MCF7 [5] = test: Cytotoxicity against human MCF7 cells assessed as reduction in cell growth incubated for 48 hrs by SRB assay; assay type: functional, cell-based; conditions: MCF7, 48 h
NCI-H460 [6] = test: Cytotoxicity against human NCI-H460 cells assessed as reduction in cell growth incubated for 48 hrs by SRB assay; assay type: functional, cell-based; conditions: NCI-H460, 48 h
HepG2 [7] = test: Cytotoxicity against human HepG2 cells assessed as reduction in cell growth incubated for 48 hrs by SRB assay; assay type: functional, cell-based; conditions: HepG2, 48 h
SF-268 [8] = test: Cytotoxicity against human SF-268 cells assessed as reduction in cell growth incubated for 72 hrs by SRB assay; assay type: functional, cell-based; conditions: SF-268, 72 h
MCF7 [9] = test: Cytotoxicity against human MCF7 cells assessed as reduction in cell growth incubated for 72 hrs by SRB assay; assay type: functional, cell-based; conditions: MCF7, 72 h
HepG2 [10] = test: Cytotoxicity against human HepG2 cells assessed as reduction in cell growth incubated for 72 hrs by SRB assay; assay type: functional, cell-based; conditions: HepG2, 72 h
NCI-H460 [11] = test: Cytotoxicity against human NCI-H460 cells assessed as reduction in cell growth incubated for 72 hrs by SRB assay; assay type: functional, cell-based; conditions: NCI-H460, 72 h
ECV-304 = test: Cytotoxicity against human ECV-304 cells; assay type: functional, cell-based
NCI-H929 = test: Cytotoxicity against human NCI-H929 cells; assay type: functional, cell-based
CAL-27 = test: Cytotoxicity against human CAL-27 cells; assay type: functional, cell-based
A549 [12] = test: Cytotoxicity against human A549 cells; assay type: functional, cell-based
P388 [13] = test: Cytotoxicity against mouse P388 cells assessed as inhibition of cell growth; assay type: functional, cell-based
A549 [14] = test: Cytotoxicity against human A549 cells assessed as inhibition of cell growth; assay type: functional, cell-based
HT-29 [15] = test: Cytotoxicity against human HT-29 cells assessed as inhibition of cell growth; assay type: functional, cell-based
SK-MEL-28 [16] = test: Cytotoxicity against human SK-MEL-28 cells assessed as inhibition of cell growth; assay type: functional, cell-based
[17] = Cytotoxicity against human Huh7.5 cells assessed as reduction in cell viability incubated for 72 hrs by CCK-8 assay; assay type: toxicity, cell-based, Huh-7.5
SK-MEL-28 [18] = test: Cytotoxicity against human SK-MEL-28 assessed as inhibition of cell growth incubated for 48 hrs; assay type: functional, cell-based; conditions: SK-MEL-28, 48 h
P388 [19] = test: Cytotoxicity against mouse P388 cells assessed as inhibition of cell growth incubated for 48 hrs; assay type: functional, cell-based; conditions: P388, 48 h
A549 [20] = test: Cytotoxicity against human A549 assessed as inhibition of cell growth incubated for 48 hrs; assay type: functional, cell-based; conditions: A549, 48 h
HT-29 [21] = test: Cytotoxicity against human HT-29 assessed as inhibition of cell growth incubated for 48 hrs; assay type: functional, cell-based; conditions: HT-29, 48 h
BC = test: Cytotoxicity against human BC cells assessed as inhibition of cell growth; assay type: functional, cell-based
HCT-116 [22] = test: Antiproliferative activity against human HCT-116 cells assessed as reduction in cell viability incubated for 24 hrs by MTT assay; assay type: functional, cell-based; conditions: HCT-116, 24 h
QG-56 = test: Cytotoxicity against human QG-56 cells assessed as reduction in cell growth incubated for 24 hrs by MTT assay; assay type: functional, cell-based; conditions: QG-56, 24 h
DU-145 = test: Cytotoxicity against human DU-145 cells assessed as cell growth inhibition measured after 48 hrs by MTT assay; assay type: functional, cell-based; conditions: DU-145, 48 h
SF-268 [23] = test: Cytotoxicity against human SF-268 cells assessed as reduction in cell viability incubated for 72 hrs by SRB assay; assay type: functional, cell-based; conditions: SF-268, 72 h
HepG2 [24] = test: Cytotoxicity against human HepG2 cells assessed as reduction in cell viability incubated for 72 hrs by SRB assay; assay type: functional, cell-based; conditions: HepG2, 72 h
HL-60 [25] = test: Cytotoxicity against human HL-60 cells assessed as reduction in cell growth; assay type: functional, cell-based
U-937 [26] = test: Cytotoxicity against human U-937 cells assessed as inhibition of cell growth; assay type: functional, cell-based
T47D = test: Antiproliferative activity against human T47D cells incubated for 48 hrs by MTT assay; assay type: functional, cell-based
A549 [27] = test: Cytotoxicity against human A549 cells assessed as reduction in cell viability incubated for 48 hrs by Celltiter-Glo assay; assay type: functional, cell-based; conditions: A549, 48 h
HCT-116 [28] = test: Cytotoxicity against human HCT-116 cells assessed as reduction in cell viability incubated for 48 hrs by Celltiter-Glo assay; assay type: functional, cell-based; conditions: HCT-116, 48 h
[29] = Cytotoxicity against human HaCaT cells incubated for 24 hrs by MTS assay; assay type: toxicity, cell-based
P388 [30] = test: Cytotoxicity against mouse P388 cells assessed as cell growth inhibition; assay type: functional; conditions: read-out: ED50 (the source's name)
U-937 [31] = test: Cytotoxicity against human U-937 cells assessed as reduction in cell viability incubated for 72 hrs by MTT assay; assay type: functional, cell-based; conditions: U-937, 72 h
PC-3 = test: Cytotoxicity against human PC-3 cells assessed as reduction in cell viability measured after 72 hrs by MTT assay; assay type: functional, cell-based; conditions: PC-3, 72 h
NCI-H460 [32] = test: Cytotoxicity against human NCI-H460 cells assessed as reduction in cell viability incubated for 48 hrs by MTT assay; assay type: functional, cell-based; conditions: NCI-H460, 48 h
NCI-H23 = test: Cytotoxicity against human NCI-H23 cells assessed as reduction in cell viability incubated for 48 hrs by MTT assay; assay type: functional, cell-based; conditions: NCI-H23, 48 h
A549 [33] = test: Cytotoxicity against human A549 cells assessed as reduction in cell viability measured after 24 hrs by MTT assay; assay type: functional, cell-based; conditions: A549, 24 h
[34] = Cytotoxicity against human BEAS-2B cells incubated for 72 hrs measured by MTT assay; assay type: toxicity, cell-based

C=CC(C)(C)[C@@]12C[C@H]3C(=O)N[C@@H](Cc4ccccc4)C(=O)N3[C@@H]1N([C@H]1O[C@]3(C[C@@H]1NC(=O)/C=C/C(C)CC(C)CCCCCC)[C@@H]1O[C@@H]1[C@](O)(CC(C)=O)[C@@H]1O[C@@H]13)c1ccccc12 (stereo partly specified)
IC50 (HeLa): 9.5 µM
IC50 (K562): 11.4 µM
IC50 (HL-60 [1]): 5.4 µM
IC50 (BGC-823): 8 µM
IC50 (MCF7 [2]): 5.4 µM

CC(=O)O[C@H]1C=CC=C2C[C@]34SS[C@](CO)(C(=O)N3[C@@H]21)N(C)C4=O
IC50 (HEK293): 4.49 µM
IC50 (HCT-116 [3]): 0.89 µM
IC50 (RKO): 1.24 µM
IC50 (SF-268 [4]): 0.25 µM
IC50 (MCF7 [5]): 0.22 µM
IC50 (NCI-H460 [6]): 0.32 µM
IC50 (HepG2 [7]): 0.49 µM
IC50 (SF-268 [8]): 0.25 µM
IC50 (MCF7 [9]): 0.22 µM
IC50 (HepG2 [10]): 0.32 µM
IC50 (NCI-H460 [11]): 0.49 µM

COc1cc2c(cc1O)CCN[C@@]21CS[C@@H]2c3c(OC(C)=O)c(C)c4c(c3[C@H](COC1=O)N1[C@@H]2[C@H]2c3c(cc(C)c(OC)c3O)C[C@@H]([C@@H]1O)N2C)OCO4
IC50 (ECV-304): 0.0016 µM
IC50 (NCI-H929): 0.0011 µM
IC50 (CAL-27): 0.0009 µM
IC50 (A549 [12]): 0.0015 µM
IC50 (P388 [13]): 0.2 µM
IC50 (A549 [14]): 0.0002 mg/L (≈ 0.000263 µM)
IC50 (HT-29 [15]): 0.0005 mg/L (≈ 0.000656 µM)
IC50 (SK-MEL-28 [16]): 0.005 mg/L (≈ 0.00656 µM)

CO[C@H]1CC(=O)[C@@H]2C[C@@]34SS[C@]5(C[C@H]6C(=O)C[C@H](OC)[C@H](O)[C@H]6N5C3=O)C(=O)N4[C@@H]2[C@H]1O
IC50 at 72 h [17]: 4.88 µM

COC1=C(C)C(=O)C2=C(C1=O)[C@H]1[C@@H]3CC4=C(C(=O)C(OC)=C(C)C4=O)[C@H](COC(C)=O)N3[C@@H](O)[C@@H](C2)N1C
IC50 (SK-MEL-28 [18]): 0.0125 mg/L (≈ 0.0237 µM)
IC50 (P388 [19]): 0.0125 mg/L (≈ 0.0237 µM)
IC50 (A549 [20]): 0.0125 mg/L (≈ 0.0237 µM)
IC50 (HT-29 [21]): 0.0125 mg/L (≈ 0.0237 µM)
IC50 (BC): 0.0025 µM
IC50 (HCT-116 [22]): 0.00057 µM
IC50 (QG-56): 0.00076 µM
IC50 (DU-145): 0.00049 µM

C=CC(C)(C)c1[nH]c2ccccc2c1/C=C1\NC(=O)[C@@]2(CC[C@]3(O)c4cc(C)cc(O)c4C(=O)c4c(O)cc(OC)c2c43)NC1=O
IC50 (SF-268 [23]): 30.1 µM
IC50 (HepG2 [24]): 37.3 µM

CC(C)=CCC/C(C)=C/COc1ccc(/C=C2/NC(=O)[C@H](C)N(O)C2=O)cc1
IC50 (HL-60 [25]): 11.6 mg/L (≈ 30.2 µM)
IC50 (U-937 [26]): 11.6 mg/L (≈ 30.2 µM)
IC50 (T47D): 11.6 mg/L (≈ 30.2 µM)

CCCCCCCCC[C@@H](CC(=O)NCCCCN)N1CC(=O)N(O)[C@H](Cc2ccccc2)C1=O
IC50 (A549 [27]): 37.9 µM
IC50 (HCT-116 [28]): 39.5 µM
IC50 at 24 h [29]: 37.5 µM

CS[C@H]1C(=O)N2[C@H]3Nc4ccccc4[C@@]3(c3c[nH]c4ccccc34)[C@H](O)[C@]2(SC)C(=O)N1C [BIONECTIN C]
EC50 (P388 [30]): 6.5 mg/L (≈ 13.5 µM)

CS[C@]1(CO)C(=O)N2[C@H]3C(=CC=C[C@@H]3O)C[C@@]2(SC)C(=O)N1C [BIS(DETHIO)BIS(METHYLTHIO)GLIOTOXIN]
IC50 (U-937 [31]): 0.2 µM
IC50 (PC-3): 0.39 µM

COC1=C(C)C(=O)C2=C(C1=O)[C@@H]1[C@@H]3CC4=C(C(=O)C(OC)=C(C)C4=O)[C@H](CO)N3[C@@H](C#N)[C@H](C2)N1C [JOURNNAMYCIN A]
IC50 (HCT-116 [22]): 0.013 µM
IC50 (NCI-H460 [32]): 8 µM
IC50 (NCI-H23): 2.3 µM
IC50 (A549 [33]): 3.1 µM
IC50 at 72 h [34]: 14.8 µM
IC50 (QG-56): 0.059 µM
IC50 (DU-145): 0.029 µM
